Legend:
Format in all cases: biochemical
[1] = target: T1, Recombinant human MMP12 catalytic domain (Homo sapiens, UniProt P39900); assay: Isolated enzyme assay MMP12 (fluorogenic substrate); conditions: substrate Mca-Pro-Cha-Gly-Nva-His-Ala-Dpa-NH2 10 μM, 60 minutes at room temperature, pH 7.3, read-out: hMMP12 IC50
T1 construct: Recombinant human MMP12 catalytic domain; made in house
Procedure: Recombinant human MMP12 catalytic domain may be expressed and purified as described by Parkar A. A. et al, (2000), Protein Expression and Purification, 20, 152. The purified enzyme can be used to monitor inhibitors of activity as follows: MMP12 (50 ng/ml final concentration) is incubated for 60 minutes at room temperature with the synthetic substrate Mca-Pro-Cha-Gly-Nva-His-Ala-Dpa-NH2 (10 μM) in assay buffer (0.1M “Tris-HCl” (trade mark) buffer, pH 7.3 containing 0.1M NaCl, 20 mM CaCl2, 0.020 mM ZnCl and 0.05% (w/v) “Brij 35” (trade mark) detergent) in the presence (10 concentrations) or absence of inhibitors. Activity is determined by measuring the fluorescence at λex 320 nm and λem 405 nm. Percent inhibition is calculated as follows: % Inhibition is equal to the [Fluorescenceplus inhibitor−Fluorescencebackground] divided by the [Fluorescenceminus inhibitor−Fluorescencebackground]. MMP8

[2] = target: T2, Recombinant human MMP14 catalytic domain (Homo sapiens, UniProt P50281); assay: Isolated enzyme assay MMP14 (fluorogenic substrate); conditions: substrate Mca-Pro-Cha-Gly-Nva-His-Ala-Dpa-NH2 10 μM, 60 minutes at room temperature, pH 7.5, read-out: hMMP14 IC50
T2 construct: Recombinant human MMP14 catalytic domain; made in house
Procedure: Recombinant human MMP14 catalytic domain may be expressed and purified as described by Parkar A. A. et al, (2000), Protein Expression and Purification, 20, 152. The purified enzyme can be used to monitor inhibitors of activity as follows: MMP14 (10 ng/ml final concentration) is incubated for 60 minutes at room temperature with the synthetic substrate Mca-Pro-Cha-Gly-Nva-His-Ala-Dpa-NH2 (10 μM) in assay buffer (0.1M “Tris-HCl” (trade mark) buffer, pH 7.5 containing 0.1M NaCl, 20 mM CaCl2, 0.020 mM ZnCl and 0.05% (w/v) “Brij 35” (trade mark) detergent) in the presence (5 concentrations) or absence of inhibitors. Activity is determined by measuring the fluorescence at λex 320 nm and λem 405 nm. Percent inhibition is calculated as follows: % Inhibition is equal to the [Fluorescenceplus inhibitor−Fluorescencebackground] divided by the [Fluorescenceminus inhibitor−Fluorescencebackground].

[3] = target: T3, Recombinant human MMP9 catalytic domain (Homo sapiens, UniProt P14780); assay: Isolated enzyme assay MMP9 (fluorogenic substrate); conditions: substrate Mca-Pro-Cha-Gly-Nva-His-Ala-Dpa-NH2 5 μM, 30 minutes at RT, pH 7.3, read-out: hMMP9 IC50
T3 sequence (P14780 with tags, fused parts or gaps DEL216-390): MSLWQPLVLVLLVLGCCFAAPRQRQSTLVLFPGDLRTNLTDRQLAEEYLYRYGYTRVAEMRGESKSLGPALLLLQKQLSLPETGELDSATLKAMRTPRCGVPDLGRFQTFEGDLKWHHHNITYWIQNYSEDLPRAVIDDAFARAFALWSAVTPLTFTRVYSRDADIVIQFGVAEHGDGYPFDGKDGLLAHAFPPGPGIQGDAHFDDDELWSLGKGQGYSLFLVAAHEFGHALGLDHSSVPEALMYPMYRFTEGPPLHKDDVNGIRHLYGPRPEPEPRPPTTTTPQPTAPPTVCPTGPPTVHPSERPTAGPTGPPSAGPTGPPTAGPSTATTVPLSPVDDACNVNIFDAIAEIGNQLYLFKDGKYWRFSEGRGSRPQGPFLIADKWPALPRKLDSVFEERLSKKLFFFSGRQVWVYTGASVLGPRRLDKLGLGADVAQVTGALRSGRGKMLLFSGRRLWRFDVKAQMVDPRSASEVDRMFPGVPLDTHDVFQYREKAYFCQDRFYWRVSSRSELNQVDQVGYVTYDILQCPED
Procedure: Recombinant human MMP9 catalytic domain was expressed and then purified by Zn chelate column chromatography followed by hydroxamate affinity column chromatography. The enzyme can be used to monitor inhibitors of activity as follows: MMP9 (5 ng/ml final concentration) is incubated for 30 minutes at RT with the synthetic substrate Mca-Pro-Cha-Gly-Nva-His-Ala-Dpa-NH2 (5 μM) in assay buffer (0.1M “Tris-HCl” (trade mark) buffer, pH 7.3 containing 0.1M NaCl, 20 mM CaCl2, 0.020 mM ZnCl and 0.05% (w/v) “Brij 35” (trade mark) detergent) in the presence (10 concentrations) or absence of inhibitors. Activity is determined by measuring the fluorescence at λex 320 nm and λem 405 nm. Percent inhibition is calculated as follows: % Inhibition is equal to the [Fluorescenceplus inhibitor−Fluorescencebackgound] divided by the [Fluorescenceminus inhibitor−Fluorescencebackground]. […]

T1 sequence (P39900 106-263 limits assumed): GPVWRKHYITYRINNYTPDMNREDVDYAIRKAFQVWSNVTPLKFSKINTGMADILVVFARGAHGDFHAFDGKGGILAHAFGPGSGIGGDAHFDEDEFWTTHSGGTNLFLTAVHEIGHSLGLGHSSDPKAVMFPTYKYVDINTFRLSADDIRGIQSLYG

Structure (SMILES)	IC50 [1]	IC50 [2]	IC50 [3]
C[C@]1(CS(=O)(=O)N2CCc3cc(-c4ccc(Cl)cc4)ccc3C2)NC(=O)NC1=O [Example 2, (5S)-5-({[6-(4-Chlorophenyl)-3,4-dihydroisoquinolin-2(1H)-yl]sulfonyl}methyl)-5-methylimidazolidine-2,4-dione]	1.4 nM	415 nM	3.5 nM
C[C@]1(CS(=O)(=O)N2CCc3cc(-c4cnc(C(F)(F)F)nc4)ccc3C2)NC(=O)NC1=O [Example 1, (5)-5-Methyl-5-({[6-[2-(trifluoromethyl)pyrimidin-5-yl]-3,4-dihydroisoquinolin-2(1H)-yl]sulfonyl}methyl)imidazolidine-2,4-dione]	10.4 nM	> 10000 nM	29.3 nM
C[C@]1(CS(=O)(=O)N2CCc3cc(-c4ccc(Cl)cc4)ncc3C2)NC(=O)NC1=O [Example 5, (5S)-5-({[6-(4-Chlorophenyl)-3,4-dihydro-2,7-naphthyridin-2(1H)-yl]sulfonyl}methyl)-5-methylimidazolidine-2,4-dione]	7 nM	1990 nM	8.3 nM
